Results from patent US6251903A, “Alkyl, azido, alkoxy, and fluoro-substituted and fused quinoxalinediones and the use thereof as glycine receptor antagonist” (priority 2000, dated 2001).
Entries after “also recorded” stand apart in the source; their conditions may differ.

Legend:
glycine binding site = glycine binding site (Rattus norvegicus, UniProt P35439); test: affinity for the glycine binding site / glycine/NMDA receptor (Ki; method not stated)
Source text: (§1) The binding affinities of quinoxaline-2,3-diones at NMDA receptor glycine sites also were estimated by electrophysiological assays with either cloned rat NMDA receptors expressed in Xenopus oocytes, or non-NMDA receptors expressed in oocytes by whole rat brain poly(A)^+ RNA. […] For NMDA receptors Ki values were approximated by averaging values at three subtype combinations (NR1A/NR2A, NR1A/NR2B, and NR1A/NR2C).

mice [1] = test: anticonvulsant activity in maximum electroshock seizure (MES) experiments in mice; assay type: in vivo, male Swiss/Webster mice; settings: route not stated
Description: The seizure stimulus parameters were: 50 mA, 60 Hz, rectangular pulse, width 0.8 msec, duration 200 msec. Tonic hind limb extension observed after application of the electrical stimulus was recorded as occurrence of seizure. The drug was applied i.v. as an aqueous Tris (Tromethamine) solution.

[2] = target: NMDA receptor glycine sites; test: electrophysiological assay, cloned rat NMDA receptors expressed in Xenopus oocytes; assay type: cell-based; settings: Table II; from electrophysiology using Xenopus oocytes
Source text: as §1

mice [3] = test: formalin test for pain in Swiss Webster mice; assay type: in vivo, male Swiss Webster mice; settings: for time spent licking, early phase / time spent licking, late phase (15-50 min): mean ± s.e.m.
Description: The effects of the glycine receptor antagonists of the present invention on chronic pain can be evaluated as follows. Male Swiss/Webster mice weighing 25-35 grams are housed five to a cage with free access to food and water and are maintained on a 12 hour light cycle (light onset at 0800h). The glycine receptor antagonist is dissolved in DMSO at a concentration of 140 and 5-40 mg/mL, respectively. DMSO is used as vehicle control. All drugs=are injected intraperitoneally (1 μl/g). […] Mice are observed in a plexiglass cylinder, 25 cm in diameter and 30 cm in height. The plantar surface of one hindpaw is injected subcutaneously with 20 μl of 5% formalin. The degree of pain is determined by measuring the amount of time the animal spends licking the formalin-injected paw during the following time intervals: 0-5' (early phase); 5'-10', 10'-15' and 15'-50' (late phase). To test whether the glycine/excitatory amino acid antagonists prevent chronic pain in the test animals, vehicle (DMSO) or drugs dissolved in vehicle at doses of 1 mg/kg to 40 mg/kg are injected intraperitoneally 30 minutes prior to the formalin injection. For each dose of drug or vehicle control at least six animals are used.
Briefly, after a 60 minute accommodation period in plexiglass jars, mice were weighed and injected intraperitoneally (i.p.) with NDMQX (1-20 mg/kg; N=6-10 mice/dose). Controls were injected with DMSO (1 mL/kg, i.p.). Thirty min later, mice were injected with formalin (20 μl of 5% solution) just under the skin of the right hind paw, transferred to the plexiglass jars, and immediately observed for licking or biting of the injected paw for 1 hr. The amount of time that each mouse spent licking the injected paw was measured at 0-5 min (early phase) and 15-50 min (late phase).
In the formalin test, following a 1 hr accommodation period, mice were injected i.p. with NMCQX (1.00-10.00 mg/kg, N=7-13 mice/dose) or NDMQX (0.5-20.00 mg/kg, N=8-9 mice/dose). Control mice were injected with Tris (0.5 M) or Bis-Tris (0.2 M), respectively. Mice were then injected with formalin. […] The amount of time that each mouse spent licking and/or biting the injected paw was recorded for 1 hr.

[4] = penetration of the blood/brain barrier, access to the central nervous system; assay type: in vivo; settings: inferred from Ki and MES ED50
mice [5] = test: morphine tolerance in the formalin test (8 days chronic); assay type: in vivo, male Swiss Webster mice
Description: A modification of a previously described method was used (Hunskaar et al., J. Neurosci. Meth. 14:69-76 (1985)). Briefly, mice were placed in Plexiglas jars for at least 1 hr for accommodation to the experimental condition. Formalin (20 μl of 5% formaldehyde solution in saline) was injected into the dorsal surface of the right hind paw using a microsyringe (Hamilton Co., Reno, Nev.) with a 27-gauge needle. Mice were then transferred to the Plexiglas jars and immediately observed for licking or biting of the injected paw for 1 hr. The amount of time that each mouse spent licking or biting the injected paw was recorded for every 5-min period for a 1 hr observation period.
[…] Mice were immediately, within a minute, injected with either saline or morphine (20 mg/kg, s.c.). On day 9, mice were weighed and after a 1-hr accommodation period-injected with morphine (4 mg/kg, s.c.). Thirty min later, all mice were tested in the formalin test (see above).

mice [6] = test: effect of chronic NDMQX on morphine antinociception in the formalin test; assay type: in vivo, male Swiss Webster mice; settings: 40 mg/kg i.p., 8 days
rats = test: rat model of permanent focal cerebral ischemia, continuous intravenous infusion; assay type: in vivo, male Sprague-Dawley rats
Description: Male Sprague-Dawley rats (290-320 g) were […] and maintained under anesthesia with ±2% of halothane. […] The common carotid arteries (CCA) were isolated, and a loose silk ligature Was placed around each CCA. A vertical skin incision was made between the left orbit and the auditory canal, posterior part of zygoma removed and small opening (2.0/2.5 mm) drilled dorsorostrally to the foramen ovale under constant saline irrigation. The dura was opened with a microsurgical hook and the brain gently retracted with a fine spatula to expose the bifurcation of the internal carotid artery and the middle cerebral artery. The ipsilateral CCA was ligated and the MCA coagulated from its origin to the olfactory tract Two hours after MCA occlusion, the clip from the contralateral CCA was removed.
NDMQX was dissolved in 0.1 M L-arginine and 5% glucose and infused as a slow 10 mg/kg i.v. bolus (immediately after MCA occlusion) followed by 7 mg/kg/h infusion for 22 hours.
Brains were sliced into 2 mm blocks and stained with tetrazolium red (2,3,5-triphenyl tetrazolium chloride). The areas of brain damage were assessed using an image analyzer (Image-1, Universal Imaging Corporation, PA) to determine the volume of cortical and subcortical infarction by integration of areas and the distance between each level.
For the drug administration, the NMCQX was dissolved in 0.05 Tris and 5% glucose. It was infused as a slow 2 mg/kg i.v. bolus (immediately after MCA occlusion) followed by 1.4 mg/kg/h infusion for 22 hours.

mice [7] = test: MES test with i.p. NMCQX or NDMQX (Example 51); assay type: in vivo, Swiss Webster mice; settings: NMCQX 1.25-7.50 mg/kg, NDMQX 5.00-15.00 mg/kg
Description: In the MES test, mice were injected i.p. with NMCQX (1.25-7.50 mg/kg) or NDMQX (5.00-15.00 mg/kg). Control mice were injected with Tris (0.05 M) or Arginine (0.1 M), respectively. Seizures were then induced by applying a rectangular pulse, 50 mA, 60 pulses/sec, 0.8 msec pulse width, and 0.2 sec train length, at the time of the drugs' peak effect.

In the case of Cc1cc2nc(O)c(O)nc2c([N+](=O)[O-])c1C [NDMQX, 6,7-Dimethyl-5-nitro-1,4-dihydroquinoxaline-2,3-dione], the Ki (glycine binding site) is reported as 43 nM, the “times less active than 6,7-dichloro-5-nitro-1,4-dihydroquinoxaline-2,3-dione at the glycine/NMDA receptor” value (glycine binding site; from Ki) is reported as “about 10 times” and the “ED50 as an anticonvulsant in the MES experiment in mice” value (mice [1]) is reported as 4 to 5 mg/kg. For the same compound, the Ki [2] was 43 nM, the “time spent licking, early phase” value (mice [3]; 1.0 mg/kg i.p.) was 72.57 ± 14.2 sec per 5 min period and the “time spent licking, late phase (15-50 min)” value (mice [3]; 1.0 mg/kg i.p.) was 37.59 ± 5.37 sec per 5 min period. The “time spent licking, early phase” value (mice [3]; 2.5 mg/kg i.p.) was 78.50 ± 10.0 sec per 5 min period, the “time spent licking, late phase (15-50 min)” value (mice [3]; 2.5 mg/kg i.p.) was 26.38 ± 5.43 sec per 5 min period and the “time spent licking, early phase” value (mice [3]; 5 mg/kg i.p.) was 32.83 ± 8.28 sec per 5 min period. For the same compound, the “time spent licking, late phase (15-50 min)” value (mice [3]; 5 mg/kg i.p.) was 10.24 ± 2.66 sec per 5 min period, the “time spent licking, early phase” value (mice [3]; 10 mg/kg i.p.) was 29.17 ± 14.9 sec per 5 min period and the “time spent licking, late phase (15-50 min)” value (mice [3]; 10 mg/kg i.p.) was 10.19 ± 2.44 sec per 5 min period. The “time spent licking, early phase” value (mice [3]; 15 mg/kg i.p.) was 6.83 ± 1.85 sec per 5 min period, the “time spent licking, late phase (15-50 min)” value (mice [3]; 15 mg/kg i.p.) was 3.19 ± 1.37 sec per 5 min period and the “time spent licking, early phase” value (mice [3]; 20 mg/kg i.p.) was 4.33 ± 2.85 sec per 5 min period. For the same compound, the “time spent licking, late phase (15-50 min)” value (mice [3]; 20 mg/kg i.p.) was 0.05 ± 0.05 sec per 5 min period, the “antinociceptive effect in the formalin test” value (mice [3]; i.p., early and late phases) was “attenuated the mean time spent licking in a dose-dependent manner in both phases; also recorded: significant analgesic effect in both phases; also recorded: dose-dependent antinociceptive effect in both phases” and the “times better in crossing the blood brain barrier than 6,7-dichloro-5-nitro-1,4-dihydroquinoxaline-2,3-dione” value [4] was “about 10 times”. For the same compound, the “effect on morphine tolerance” value (mice [5]; 2 mg/kg) was “no effect on morphine tolerance”, the “effect on morphine tolerance” value (mice [5]; 20 mg/kg) was “attenuated” and the “effect on morphine tolerance” value (mice [5]; 40 mg/kg) was “completely abolished”. For the same compound, the “morphine tolerance (words, overall)” value (mice [5]; 8 days, early and late phases) was “Tolerance did not develop in mice treated with NDMQX followed by morphine; also recorded: blocked morphine tolerance in both phases of the formalin test”, the “effect on morphine-induced antinociception” value (mice [6]) was “did not alter the antinociceptive effect of morphine; also recorded: not due to potentiation of morphine-induced antinociception” and the “reduction in cortical infarct volume” value (rats; 10 mg/kg i.v. bolus then 7 mg/kg/h for 22 hours, p<0.05) was 71%. The “neuroprotection” value (rats; rat focal ischemia) was “significant neuroprotection” and the “protection from electroshock seizures” value (mice [7]) was “dose-dependently protected mice from generalized clonic-tonic seizures”.
